Columns and labels:
Type in all cases: in vivo
Pansy plants [1] = assay: Pansy shelf life under drought (daily wilting rating, sales index)
Procedure, shortened: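 Greenhouse pansies were treated with 20 mL solution each, 3 mL foliar plus 17 mL root drench, then watering was withheld. Wilting was rated daily on a 1–4 scale, and shelf life was the day before the rating reached 2.5. Yellow leaves were counted 3 days after treatment.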

Pansy plants [2] = assay: Pansy leaf transpiration rate (LI-1600 Steady State Porometer); settings: Matrix Premium Rose
Procedure: (§1) Uniform plants were selected for the study. Prior to chemical treatment, plants were saturated with water and then drained for about two hours. A total of 20 mL chemical solution, which is equivalent to about 10% of the cell volume, was applied to each plant with 3 mL solution foliar applied to canopy and 17 mL solution drench applied to root zone. Unless specified, watering of plants was stopped after chemical treatment.
(§2) After chemical treatment, plants were arranged in a randomized complete block experimental design. The plants were rated daily for the extent of wilting on a scale from 1 (no wilting) to 4 (complete wilting) to generated a sales index rating. A rating of 2.5 was the point at which a plant was determined to be unmarketable and the previous day was recorded as the shelf life of that plant in days. Yellow leaf number was counted at 3 days after chemical treatment. Leaf transpiration rate was measured after treatment using a LI-1600 Steady State Porometer (LI-Cor, Lincoln, Nebr.). The transpiration rate of each treatment was calculated as the percentage of that of control at each day to reduce day-to-day variation caused by changes of environmental condition such as light intensity, humidity, and temperature.

Pansy plants [3] = assay: Pansy yellow leaf number (leaf yellowing)
Procedure: All studies were conducted in the greenhouse at the research farm of Valent BioSciences Corporation (Long Grove, Ill.). Pansy plants were obtained either from local retailers as mature plants, or plugs from wholesale nurseries. Plugs of Pansy plants were transplanted into an 18-cell flat filled with Promix BX (available from Premier Horticulture Inc. Quakertown, Pa.) and grown for about 30 days prior to treatment. During growing periods, plants received daily irrigation and weekly fertilizer (1 g/L all purpose fertilizer 20-20-20, The Scotts Company, Marysville, Ohio).
as §1
as §2, with “Yellow leaf number was counted at 3 days after chemical treatment.” left out

Yellow leaf number (Pansy plants [3]; 0.2 mg BA, Matrix Yellow, 3 d after treatment, Table 5): 1.8
Yellow leaf number (Pansy plants [3]; 0.2 mg BA, no water, Whispers White, 3 d after treatment, Table 15): 7.8
Yellow leaf number (Pansy plants [3]; 2 mg BA at 0 d, Matrix Premium Rose, 3 d after treatment, Table 11): 0.8
Yellow leaf number (Pansy plants [3]; 2 mg BA at +1 d, Matrix Premium Rose, 3 d after treatment, Table 11): 0.8
Yellow leaf number (Pansy plants [3]; 2 mg BA at −1 d, Matrix Premium Rose, 3 d after treatment, Table 11): 0.7
Yellow leaf number (Pansy plants [3]; 2 mg BA, Delta Premium Pure White, 3 days after treatment, Table 23): 1.3
Yellow leaf number (Pansy plants [3]; 2 mg BA, Delta Premium Pure White, 7 days after treatment, Table 23): 6.2
Yellow leaf number (Pansy plants [3]; 2 mg BA, Matrix Yellow, 3 d after treatment, Table 5): 1.5
Yellow leaf number (Pansy plants [3]; 2 mg BA, no water, Matrix Premium Rose, 3 d after treatment, Table 13): 0.8
Yellow leaf number (Pansy plants [3]; 2 mg BA, no water, Whispers White, 3 d after treatment, Table 15): 6.3
Yellow leaf number (Pansy plants [3]; 2 mg, Clear Sky Yellow, drought, 3 d after treatment, Table 8): 0.0
Yellow leaf number (Pansy plants [3]; 2 mg, Crown Azure Blue, drought, 3 d after treatment, Table 9): 0.3
Yellow leaf number (Pansy plants [3]; 2 mg, Matrix Yellow, drought, 3 d after treatment, Table 7): 7.8
Yellow leaf number (Pansy plants [3]; 2 mg, Matrix Yellow, drought, 3 d after treatment, Table 10): 7.2
Structure (SMILES): c1ccc(CNc2ncnc3nc[nH]c23)cc1 [BA, 6-benzylaminopurine]
Shelf life (Pansy plants [1]; 0.2 mg BA, Matrix Yellow, Table 5): 3.8 days
Shelf life (Pansy plants [1]; 0.2 mg BA, no water, Whispers White, Table 15): 2.5 days
Shelf life (Pansy plants [1]; 2 mg BA at 0 d, Matrix Premium Rose, Table 11): 3.7 days
Shelf life (Pansy plants [1]; 2 mg BA at +1 d, Matrix Premium Rose, Table 11): 4.0 days
Shelf life (Pansy plants [1]; 2 mg BA at −1 d (1 day prior to ABA treatment day), Matrix Premium Rose, Table 11): 3.8 days
Shelf life (Pansy plants [1]; 2 mg BA, Delta Premium Pure White, Table 23): 4.0 days
Shelf life (Pansy plants [1]; 2 mg BA, Matrix Yellow, Table 5): 3.8 days
Shelf life (Pansy plants [1]; 2 mg BA, no water, Matrix Premium Rose, Table 13): 4.0 days
Shelf life (Pansy plants [1]; 2 mg BA, no water, Whispers White, Table 15): 2.7 days
Shelf life (Pansy plants [1]; 2 mg, Clear Sky Yellow, drought, Table 8): 3.8 days
Shelf life (Pansy plants [1]; 2 mg, Crown Azure Blue, drought, Table 9): 3.3 days
Shelf life (Pansy plants [1]; 2 mg, Matrix Yellow, drought, Table 7): 3.5 days
Shelf life (Pansy plants [1]; 2 mg, Matrix Yellow, drought, Table 10): 2.3 days
Transpiration rate (% of control) (Pansy plants [2]; 0.2 mg BA, no water, day 1 after treatment, Table 16): 101 % of control
Transpiration rate (% of control) (Pansy plants [2]; 0.2 mg BA, no water, day 2 after treatment, Table 16): 29 % of control
Transpiration rate (% of control) (Pansy plants [2]; 0.2 mg BA, no water, day 3 after treatment, Table 16): 7 % of control
Transpiration rate (% of control) (Pansy plants [2]; 0.2 mg BA, watered, day 1 after treatment, Table 16): 102 % of control
Transpiration rate (% of control) (Pansy plants [2]; 0.2 mg BA, watered, day 2 after treatment, Table 16): 98 % of control
Transpiration rate (% of control) (Pansy plants [2]; 0.2 mg BA, watered, day 3 after treatment, Table 16): 100 % of control
Transpiration rate (% of control) (Pansy plants [2]; 0.2 mg BA, watered, day 4 after treatment, Table 16): 101 % of control
Transpiration rate (% of control) (Pansy plants [2]; 0.2 mg BA, watered, day 5 after treatment, Table 16): 100 % of control
Transpiration rate (% of control) (Pansy plants [2]; 0.2 mg BA, watered, day 7 after treatment, Table 16): 99 % of control
Transpiration rate (% of control) (Pansy plants [2]; 0.2 mg BA, watered, day 10 after treatment, Table 16): 100 % of control
Transpiration rate (% of control) (Pansy plants [2]; 2 mg BA at 0 d, day 1 after ABA treatment, Table 12): 105 % of control
Transpiration rate (% of control) (Pansy plants [2]; 2 mg BA at 0 d, day 2 after ABA treatment, Table 12): 97 % of control
Transpiration rate (% of control) (Pansy plants [2]; 2 mg BA at 0 d, day 3 after ABA treatment, Table 12): 98 % of control
Transpiration rate (% of control) (Pansy plants [2]; 2 mg BA at +1 d, day 1 after ABA treatment, Table 12): 96 % of control
Transpiration rate (% of control) (Pansy plants [2]; 2 mg BA at +1 d, day 2 after ABA treatment, Table 12): 101 % of control
Transpiration rate (% of control) (Pansy plants [2]; 2 mg BA at +1 d, day 3 after ABA treatment, Table 12): 107 % of control
Transpiration rate (% of control) (Pansy plants [2]; 2 mg BA at −1 d, day 1 after ABA treatment, Table 12): 115 % of control
Transpiration rate (% of control) (Pansy plants [2]; 2 mg BA at −1 d, day 2 after ABA treatment, Table 12): 104 % of control
Transpiration rate (% of control) (Pansy plants [2]; 2 mg BA at −1 d, day 3 after ABA treatment, Table 12): 109 % of control
Transpiration rate (% of control) (Pansy plants [2]; 2 mg BA, no water, day 1 after treatment, Table 14): 108 % of control
Transpiration rate (% of control) (Pansy plants [2]; 2 mg BA, no water, day 1 after treatment, Table 16): 101 % of control
Transpiration rate (% of control) (Pansy plants [2]; 2 mg BA, no water, day 2 after treatment, Table 14): 71 % of control
Transpiration rate (% of control) (Pansy plants [2]; 2 mg BA, no water, day 2 after treatment, Table 16): 34 % of control
Transpiration rate (% of control) (Pansy plants [2]; 2 mg BA, no water, day 3 after treatment, Table 14): 54 % of control
Transpiration rate (% of control) (Pansy plants [2]; 2 mg BA, no water, day 3 after treatment, Table 16): 14 % of control
Transpiration rate (% of control) (Pansy plants [2]; 2 mg BA, no water, day 4 after treatment, Table 14): 35 % of control
Transpiration rate (% of control) (Pansy plants [2]; 2 mg BA, watered, day 1 after treatment, Table 14): 109 % of control
Transpiration rate (% of control) (Pansy plants [2]; 2 mg BA, watered, day 1 after treatment, Table 16): 99 % of control
Transpiration rate (% of control) (Pansy plants [2]; 2 mg BA, watered, day 2 after treatment, Table 14): 102 % of control
Transpiration rate (% of control) (Pansy plants [2]; 2 mg BA, watered, day 2 after treatment, Table 16): 97 % of control
Transpiration rate (% of control) (Pansy plants [2]; 2 mg BA, watered, day 3 after treatment, Table 14): 101 % of control
Transpiration rate (% of control) (Pansy plants [2]; 2 mg BA, watered, day 3 after treatment, Table 16): 98 % of control
Transpiration rate (% of control) (Pansy plants [2]; 2 mg BA, watered, day 4 after treatment, Table 14): 101 % of control
Transpiration rate (% of control) (Pansy plants [2]; 2 mg BA, watered, day 4 after treatment, Table 16): 97 % of control
Transpiration rate (% of control) (Pansy plants [2]; 2 mg BA, watered, day 5 after treatment, Table 14): 99 % of control
Transpiration rate (% of control) (Pansy plants [2]; 2 mg BA, watered, day 5 after treatment, Table 16): 101 % of control
Transpiration rate (% of control) (Pansy plants [2]; 2 mg BA, watered, day 7 after treatment, Table 14): 98 % of control
Transpiration rate (% of control) (Pansy plants [2]; 2 mg BA, watered, day 7 after treatment, Table 16): 97 % of control
Transpiration rate (% of control) (Pansy plants [2]; 2 mg BA, watered, day 10 after treatment, Table 14): 101 % of control
Transpiration rate (% of control) (Pansy plants [2]; 2 mg BA, watered, day 10 after treatment, Table 16): 102 % of control
Transpiration rate (% of control) (Pansy plants [2]; 2 mg BA, watered, day 15 after treatment, Table 14): 98 % of control

Source: patent publication US20100022562A1, “Use of Plant Growth Regulators to Reduce Abscisic Acid Related Plant Leaf Yellowing” (priority 2008, published 2010)
